In US4528289A, “Corynantheine derivates, processes for their preparation, and their use” (Dr. Willmar Schwabe GmbH & Co., priority 1982, dated 1985):

Tests used:
[1] = tested on: systolic blood pressure of spontaneously hypertonic rats; assay: systolic blood pressure of spontaneously hypertonic rats after oral administration; type: in vivo, rat; settings: for systolic blood pressure, subsequent value / systolic blood pressure, Δ / systolic blood pressure, Δ %: 2 h, ajmalicine hydrochloride
Source text: (§1) The blood pressure-lowering action of the compound THCN according to the present invention and of DHCN was investigated on spontaneously hypertonic rats after oral administration and compared with that of ajmalicine. The method thereby used for the measurement of the systolic blood pressure and of the heart rate on rats is described in Arzneimittel-Forschung, 18, 1285-1287/1968. Before commencement of the experiments, the animals were familiarised with the measurement procedure.
(§2) In a first series of experiments, the systolic blood pressure and the heart rate were investigated 2 hours after the oral administration of the test substances in the form of their hydrochlorides. The substances were suspended in 0.2% agar and administered in a volume of 10 ml./kg. It follows therefrom that all three substances lower the blood pressure in a dosage-dependent manner.

[2] = tested on: heart rate of spontaneously hypertonic rats; assay: heart rate of spontaneously hypertonic rats after oral administration; type: in vivo, rat; settings: 2 h, ajmalicine hydrochloride
Source text: as §1, §2

[3] = tested on: systolic blood pressure of spontaneously hypertonic rats; assay: chronological course of blood pressure decrease in spontaneously hypertonic rats; type: in vivo, rat; settings: 20 mg/kg
Source text: as §1
(§3) In a further series of experiments, the chronological course of the blood pressure lowering was investigated. For this purpose, spontaneously hypertonic rats were treated with 10 mg./kg. DHCN and with 5 or 10 mg./kg. THCN per os and in each case 6 or 12 animals of the treated group were measured at definite times after the treatment.

[4] = tested on: heart rate of spontaneously hypertonic rats; assay: chronological course of heart rate of spontaneously hypertonic rats; type: in vivo, rat; set-up: heart rate at time t: unit not given here; settings: 20 mg/kg
Source text: as §1, §3

CHCl3 arrhythmia = assay: inhibition of CHCl3 arrhythmia on mice, i.p.; type: in vivo
Source text: (§4) The antiarrhythmic effectiveness of DHCN and THCN was investigated on mice and rats.

[5] = tested on: aconitine-induced arrythmias; assay: protection against aconitine-induced arrhythmias in urethane-narcotised rats, i.v.; type: in vivo; settings: 2 to 5 mg/kg (THCN)
Source text: as §4

[6] = acute toxicity, LD50 (Litchfield and Wilcoxon) on mice; type: in vivo; settings: mouse, in vivo, mice
Source text: (§5) The toxicity of the compounds according to the present invention can be seen from the LD50 values given in the following Table 8 for intravenous, intraperitoneal and oral administration.

mice = assay: as above; type: in vivo; settings: i.v., i.p. and oral LD50, mice
Source text: as §5

[7] = tested on: stereotypy brought about by apomorphine; assay: potentiation of apomorphine stereotypy in mice; type: in vivo; settings: oral, same dosage range (10 to 20 mg/kg)
[8] = tested on: heart rate of spontaneously hypertonic rats; assay: chronological course of heart rate of spontaneously hypertonic rats; type: in vivo, rat; set-up: unit not given here; settings: 20 mg/kg, 4 h.
circulatory disturbances = settings: known therapy of circulatory disturbances; cited from earlier work

Question: Which “systolic blood pressure, subsequent value” ([1]; 18 mg/kg p.o.) does the source give for COC(=O)C1=CO[C@@H](C)[C@H]2CN3CCc4c([nH]c5ccccc45)[C@@H]3C[C@H]12 [ajmalicine, reference compound] here?
Answer: 198 ± 7 mm Hg

Question: What about the “systolic blood pressure, Δ” value ([1]; 18 mg/kg p.o.) of the same compound?
Answer: -12 ± 2 mm Hg

Question: What about the “systolic blood pressure, Δ %” value ([1]; 18 mg/kg p.o.) of the same compound?
Answer: -5.6 ± 1%

Question: What about the “systolic blood pressure, subsequent value” ([1]; 40 mg/kg p.o.) of the same compound?
Answer: 173 ± 7 mm Hg

Question: What about the “systolic blood pressure, Δ” value ([1]; 40 mg/kg p.o.) of the same compound?
Answer: -25 ± 6 mm Hg

Question: What about the “systolic blood pressure, Δ %” value ([1]; 40 mg/kg p.o.) of the same compound?
Answer: -12.4 ± 3%

Question: What about the “systolic blood pressure, subsequent value” ([1]; 56 mg/kg p.o.) of the same compound?
Answer: 172 ± 4 mm Hg

Question: What about the “systolic blood pressure, Δ” value ([1]; 56 mg/kg p.o.) of the same compound?
Answer: -37 ± 5 mm Hg

Question: And the “systolic blood pressure, Δ %” value ([1]; 56 mg/kg p.o.)?
Answer: -17.5 ± 2.1%

Question: What about the “maximum blood pressure lowering” value ([1]; 56 mg/kg, not exceeded with dosages up to 100 mg/kg) of the same compound?
Answer: about 18%

Question: And the “systolic blood pressure, subsequent value” ([1]; 86 mg/kg p.o.)?
Answer: 165 ± 11 mm Hg

Question: And the “systolic blood pressure, Δ” value ([1]; 86 mg/kg p.o.)?
Answer: -36 ± 12 mm Hg

Question: What about the “systolic blood pressure, Δ %” value ([1]; 86 mg/kg p.o.) of the same compound?
Answer: -17.7 ± 6.1%

Question: What about the “systolic blood pressure, subsequent value” ([1]; 100 mg/kg p.o.) of the same compound?
Answer: 165 ± 5 mm Hg

Question: And the “systolic blood pressure, Δ” value ([1]; 100 mg/kg p.o.)?
Answer: -33 ± 9 mm Hg

Question: And the “systolic blood pressure, Δ %” value ([1]; 100 mg/kg p.o.)?
Answer: -16.3 ± 4%

Question: And the “heart rate, subsequent value” ([2]; 18 mg/kg p.o.)?
Answer: 492 ± 27 beats/min.

Question: What about the “heart rate, Δ” value ([2]; 18 mg/kg p.o.) of the same compound?
Answer: 30 ± 15 beats/min.

Question: What about the “heart rate, Δ %” value ([2]; 18 mg/kg p.o.) of the same compound?
Answer: 7.3 ± 4.3%

Question: What about the “heart rate, subsequent value” ([2]; 40 mg/kg p.o.) of the same compound?
Answer: 513 ± 11 beats/min.

Question: And the “heart rate, Δ” value ([2]; 40 mg/kg p.o.)?
Answer: 51 ± 19 beats/min.

Question: What about the “heart rate, Δ %” value ([2]; 40 mg/kg p.o.) of the same compound?
Answer: 11.9 ± 4.4%

Question: And the “heart rate, subsequent value” ([2]; 56 mg/kg p.o.)?
Answer: 522 ± 9 beats/min.

Question: What about the “heart rate, Δ” value ([2]; 56 mg/kg p.o.) of the same compound?
Answer: 4 beats/min.

Question: And the “heart rate, Δ %” value ([2]; 56 mg/kg p.o.)?
Answer: 0.8 ± 1.6%

Question: What about the “heart rate, subsequent value” ([2]; 86 mg/kg p.o.) of the same compound?
Answer: 511 ± 4 beats/min.

Question: What about the “heart rate, Δ” value ([2]; 86 mg/kg p.o.) of the same compound?
Answer: 14 ± 2 beats/min.

Question: And the “heart rate, Δ %” value ([2]; 86 mg/kg p.o.)?
Answer: 2.9 ± 2.0%

Question: What about the “heart rate, subsequent value” ([2]; 100 mg/kg p.o.) of the same compound?
Answer: 515 ± 9 beats/min.

Question: And the “heart rate, Δ” value ([2]; 100 mg/kg p.o.)?
Answer: 26 ± 11 beats/min.

Question: And the “heart rate, Δ %” value ([2]; 100 mg/kg p.o.)?
Answer: 5.3%

Question: And the “percentage decrease of blood pressure” value ([3]; 10 min.)?
Answer: 9.5%

Question: What about the “percentage decrease of blood pressure” value ([3]; 20 min.) of the same compound?
Answer: 13.0%

Question: And the “percentage decrease of blood pressure” value ([3]; 40 min.)?
Answer: 14.2%

Question: What about the “percentage decrease of blood pressure” value ([3]; 80 min.) of the same compound?
Answer: 9.8%

Question: And the “percentage decrease of blood pressure” value ([3]; 2 h.)?
Answer: 5.8%

Question: What about the “percentage decrease of blood pressure” value ([3]; 4 h.) of the same compound?
Answer: -1.2%

Question: And the “percentage decrease of blood pressure” value ([3]; 6 h.)?
Answer: -0.5%

Question: And the “heart rate at time t” value ([4]; 10 min.)?
Answer: 503

Question: And the “heart rate at time t” value ([4]; 20 min.)?
Answer: 505

Question: What about the “heart rate at time t” value ([4]; 40 min.) of the same compound?
Answer: 482

Question: What about the “heart rate at time t” value ([4]; 80 min.) of the same compound?
Answer: 481

Question: And the “heart rate at time t” value ([4]; 2 h.)?
Answer: 472

Question: And the “heart rate at time t” value ([4]; 6 h.)?
Answer: 491

Question: What about the “antiarrhythmic effectiveness, chloroform arrythmias (in words)” value (CHCl3 arrhythmia) of the same compound?
Answer: no antiarrythmic effectiveness

Question: And the “inhibition in % of CHCl3 arrhythmia” value (CHCl3 arrhythmia; 25 mg/kg)?
Answer: 0%

Question: And the “antiarrhythmic effectiveness, aconitine-induced arrythmias (in words)” value [5]?
Answer: no antiarrythmic effectiveness

Question: And the LD50 ([6]; ip)?
Answer: 90 mg/kg

Question: What about the LD50 ([6]; iv) of the same compound?
Answer: 14 mg/kg

Question: And the LD50 ([6]; po)?
Answer: 360 mg/kg

Question: What about the “toxicities compared (in words)” value (mice) of the same compound?
Answer: almost the same

Question: What about the “properties influencing the central nervous system (in words)” value [7] of the same compound?
Answer: no properties influencing the central nervous system

Question: And the “heart rate at time t” value [8]?
Answer: 499

Question: And the “period of activity (in words)” value (circulatory disturbances)?
Answer: relatively short period of activity
